Source: publication PMC5675611, “GZD824 suppresses the growth of human B cell precursor acute lymphoblastic leukemia cells by inhibiting the SRC kinase and PI3K/AKT pathways” (Oncotarget, 2016)

How the values were obtained:
Type in all cases: cell-based, human
NALM6 cells [1] = experiment: Annexin V apoptosis flow cytometry
Experimental: Human pre-B ALL cell lines NALM6 and SUPB15 were purchased from American Type Culture Collection (ATCC, Maryland, USA). All pre-B ALL cell lines were maintained in cell culture media and conditions as recommended by the ATCC. Cells were treated with GZD824 for 24 hours. GZD824 (3μM, 1μM, or 0.5μM) was used in the experiments unless otherwise noted. NALM6 and SUPB15 cells were maintained in RPMI-1640 medium (Gibco, New York, NY, USA) with 10% fetal bovine serum (Biochrom, Melbourne, Australia).
(§1) For identification of apoptotic cells among NALM6, SUPB15, and primary pre-B ALL cells, the GZD824-treated cells were stained with Annexin V Apoptosis Detection Kit (88-8007, BD ebioscience, CA, USA) according to the manufacturer's instructions (Affymetrix ebioscience, CA, USA) and then subjected to flow cytometric analysis by the Accuri™ C6 (BD Biosciences, CA, USA). For the in vitro drug sensitivity test in Figure 6A, the human CD45+ cells in spleen and bone marrow from sick mice account for over 95% of the total. We enriched human CD45+ cells in PB by MACS according to the manufacturer's instruction. After the enrichment, the purity of human CD45+ cell in PB reached 95%. The percentage of apoptotic cells was demarcated as the amount of both early and late facets of apoptosis (annexin V positive), as previously described. All data were analyzed with FlowJo software (Tree Star, Inc., Ashland, USA).

NALM6 cells [2] = experiment: Cell-cycle analysis (PI staining, flow cytometry)
Experimental: Human pre-B ALL cell lines NALM6 and SUPB15 were purchased from American Type Culture Collection (ATCC, Maryland, USA). All pre-B ALL cell lines were maintained in cell culture media and conditions as recommended by the ATCC. Cells were treated with GZD824 for 24 hours. GZD824 (3μM, 1μM, or 0.5μM) was used in the experiments unless otherwise noted. NALM6 and SUPB15 cells were maintained in RPMI-1640 medium (Gibco, New York, NY, USA) with 10% fetal bovine serum (Biochrom, Melbourne, Australia). Cell cycle analysis was performed by flow cytometry after propidium iodide (PI) staining as described. Approximately 2 × 10^6 cells were suspended in 0.5 ml of phosphate-buffered saline (PBS) and vortexed with 3 ml of 80% ethanol. Cells were fixed at 4°C for 1 hr, washed with PBS, re-suspended in PBS, and vortexed vigorously. Cells were re-suspended in 1 ml of PBS containing 50 μg/ml of DNase-free RNase A (EN0531, Thermo Fisher scientific, Waltham, USA) and 50 μg/ml of propidium iodide PI (P4170, Sigma Aldrich, St. Louis, MO, USA). Cells were stained for at least 1 hr at room temperature in the dark. Stained cells were then subjected to flow cytometric analysis by an Accuri™ C6 (BD Biosciences, CA, USA).

primary pre-B ALL cells = experiment: Annexin V apoptosis of primary pre-B ALL cells
Experimental: Human pre-B ALL cells were obtained from spleen (SP) of sick pre-B ALL xenograft mice. Human CD45+ pre-B ALL cells, accounting for over 95% of the total SP mononuclear cells, were subjected in vitro assay. To determine the in vitro anticancer efficacy of GZD824, the drug was applied to fresh splenic pre-B ALL cells that were directly isolated from sick pre-B ALL xenograft mice in 3 independent experiments. In addition, fresh splenic cells were analyzed 24 hours post drug treatment. At this time point about 20% of the total cells in the vehicle group are apoptotic. […] All cells were cultured at 37°C in 5% carbon dioxide and a normal level of oxygen.
as §1

IRS1 = experiment: Western blot of NALM6 cells; conditions: NALM6, 1μM or 3μM, 24 hours
Experimental: (§2) Figure 6 GZD824 inhibits PI3K/AKT signaling in pre-B ALL cells A. […] Bars represent the mean percentages of AnnexinV+ cells in each group. B. Primary pre-B ALL cells from spleen of P#1 xenograft mouse treated with DMSO, GZD824 (1μM), IGF-1 (10ng/ML), or both. Bars represent the mean percentages of AnnexinV+ cells in each group. C. Western blot analysis of NALM6 cells. Cells were treated with DMSO, GZD824 (1μM), or GZD824 (3μM) for 24 hours. Lysates were analyzed with antibodies against IRS1, phosphate AKT, and AKT. D. Western blot analysis of primary pre-B ALL cells. Primary cells treated with GZD824 (1μM), IGF-1 (10ng/ML), or both for 24 hours. Lysates were analyzed with antibodies against Irs1, phosphate AKT, and AKT. For Western blot analysis, 30 μg of total protein extracts prepared from NALM6 or primary pre-B ALL cells from SP of PDX mice were separated on SDS-PAGE and transferred to a PVDF membrane (Bio-Rad, Hercules, CA, USA). […]

[3] = tested on: phosphorylated AKT (Ser473); experiment: Western blot of NALM6 cells; conditions: NALM6, 1μM or 3μM, 24 hours
Experimental: as §2

Cc1ccc(C(=O)Nc2ccc(CN3CCN(C)CC3)c(C(F)(F)F)c2)cc1C#Cc1cnc2[nH]ncc2c1 [GZD824]
percentages of apoptotic cells (NALM6 cells [1]; NALM6, 500 nM): did not increase
apoptotic rate (NALM6 cells [1]; NALM6, 1μM, 24 h): moderate
apoptosis (Annexin V-positive cells), comparison of inhibitors (NALM6 cells [1]; NALM6, 3μM of drug, 24 hours, Fig 5E): significantly increased apoptotic level
cells undergoing apoptosis (AnnexinV+) (NALM6 cells [1]; NALM6, 3μM, 24 h): 74.4%
proportions of the G0/G1 fraction (NALM6 cells [2]; NALM6, 500 nM): increased
percentage of the G0/G1 fraction (NALM6 cells [2]; NALM6, 3μM, 24 hours): 71.6%
percentages of apoptotic cells (primary pre-B ALL cells; all five patient samples (P#1-P#5), 1μM, vs DMSO): significantly increased
percentages of apoptotic pre-B ALL cells derived from BM compared to those from SP and PB (primary pre-B ALL cells; cells from P#2 xenograft mice, 1μM GZD824, 24 hours in vitro): significantly lower
apoptotic levels, GZD824 alone vs both GZD824 and IGF-1 (primary pre-B ALL cells; primary pre-B ALL cells from spleen of P#1 xenograft mouse, GZD824 1μM, IGF-1 10ng/ML): much higher apoptotic levels
levels of IRS1 protein (IRS1): reduced
levels of phosphorylated AKT (Ser473) [3]: reduced
